From a melting point compilation (Tetko et al.; mined from patent text by program, amines drawn as free bases though some values may be those of a salt)

Row | SMILES | melting point [°C]
1 | CN(C)NC(=O)NCCCCC1CCSS1 (centres undefined) | 60 to 61
2 | COC(=O)C(=CNc1ccc(F)cc1)C(=O)C=Cc1ccc(NC(C)=O)cc1 | 161 to 164
3 | CCCCNC(=O)NS(=O)(=O)c1c(C(=O)OC)cnn1C | 88 to 90
4 | NNc1c(Cl)c(Cl)nc(C(=O)O)c1Cl | 166 to 168
5 | N#Cc1ccc(-c2nc(COc3ccc(CCCn4ccnc4)cc3)co2)cc1 | 98 to 99
6 | COC(=O)c1cc(C)cc(CC#N)c1 | 56.2 to 57.8
7 | C(=C(c1ccccc1)c1ccccc1)c1ccc(N(c2ccccc2)c2ccc3c4c(cccc24)CC3)cc1 | 189 to 190
8 | CN(C)CCCNCc1ccc(-c2cc3ncnc(Nc4ccc5[nH]ccc5c4)c3s2)cc1 | 148 to 160
9 | COc1cc(C(=O)NC2CN(C)N(C)C2)cc(OC)c1OC | 163 to 166
10 | CC(C)(C)C(=O)CN1CCNC1=N[N+](=O)[O-] | 158 to 159
11 | Cc1cccc2c1NC(C)c1nnnn1-2 (centres undefined) | 159 to 161
12 | CC(C)(C)OC(=O)CNC(=O)CC(C1CCCCC1)C1CCCCC1 | 72 to 74
13 | CCCCCCCCCCCCCCCCO[C@@H]1CCCO[C@H]1CO (relative stereo) | 41 to 42
14 | Cc1cc(C)c(Nc2nc(C)ccc2S(=O)(=O)c2ccc(OCc3c(C)cccc3C)cc2)c(C)c1 | 136 to 138
15 | CNC(=O)c1c(NC(=O)CCl)c(OC)c(C(=O)NC)c([N+](=O)[O-])c1OC | 259 to 260
16 | COC(=O)c1c(OC(C)C)c(Br)c(Br)n1C | 42 to 45
17 | CCCCCCCCCCCCCCCCNC(=O)CCCO | 89.5 to 90
18 | CCOc1csc(N)c1C#N | 145 to 146
19 | CC(C)(C)c1cc(CC(O)=S)cc(C(C)(C)C)c1O | 130
20 | COc1cccc(OCc2ccc(C(=O)N(C)C3CCCCC3)cc2)c1 | 90.4

Row | SMILES | melting point [°C]
21 | COc1cc2nc(-c3n[nH]cc3NC(=O)C3CC3)[nH]c2cc1Cl | 225 to 226
22 | COC(=O)c1ccc(C2C(C(=O)c3ccc(C)cc3)=C(O)C(=O)N2c2ncc(S(=O)(=O)c3ccc([N+](=O)[O-])cc3)s2)cc1 (centres undefined) | 249 to 251
23 | COc1cc(OC)cc(N2CCN(C(=O)Nc3cc(C(C)OC(=O)CCC(=O)O)c(C)nc3OC)CC2)c1 (centres undefined) | 158 to 160
24 | CNC1=NS(=O)(=O)N=C1NCCSCc1cnc(CN(C)C)s1 | 170 to 172
25 | CCOC(=O)C(C)=CC=CC(C)=CC=CC=C(C)C=CC=C(C)C1OCC(C)(C)CO1 | 158
26 | CC(=O)c1ccc(CCCCCCOc2ccc(C(=O)c3cccc(C(=O)O)c3)cc2CCC(=O)O)cc1 | 139 to 141
27 | C#CCC(CC#C)NC(=O)OC(C)(C)C | 64 to 67
28 | COc1ccc(NC(=S)C(N)=O)cc1OC | 149 to 151
29 | CC1(c2ccccc2)CCC(=O)CC1 | 48 to 50
30 | N#Cc1ccc(N2CCN(Cc3ccccc3)CC2)cc1 | 104 to 105
31 | O=C(NN1CCCCC1)c1nn(-c2ccccc2-c2ccccc2Cl)c2c1C1CC3CC(C1)CC2C3 | 206
32 | CCOC(=O)N1CCN(c2ccc(OC[C@H]3CCn4cc([N+](=O)[O-])nc4O3)cc2)CC1 | 218
33 | CCN1CCc2c(c(Br)cc([N+](=O)[O-])c2NC(C)=O)C1 | 168
34 | O=C(CC(F)=C(F)F)NS(=O)(=O)C(F)(F)F | 115 to 120
35 | CC(=O)NCc1cc([N+](=O)[O-])ccc1N | 208 to 210
36 | CN1CCNC1=C(Cl)[N+](=O)[O-] | 145 to 146
37 | CCOC(=O)NC(=S)Nc1ccc(Br)cn1 | 159 to 161
38 | CC12CC(CCF)C3C4CCC(=O)C=C4CCC3C1CCC2=O (centres undefined) | 85
39 | ClC(Cl)=CCOc1cc(Cl)c(OCc2ccncc2)c(Cl)c1 | 74
40 | O=C1c2cccc3cc4ccccc4c(c23)C(=O)N1CCCNCCCCNCCCN1C(=O)c2cccc3cc4ccccc4c(c23)C1=O | 183

Continued, values first:

Row | melting point [°C] | SMILES
41 | 238 to 239 | O=C(O)Cn1c(-c2ccccc2)c(Cc2nc3c(F)c(F)cc(F)c3s2)c2ccccc21
42 | 165 to 166 | Cc1nc(N2CCC(Cc3ccc(OC(F)(F)F)cc3)C2=O)sc1C(=O)NCc1ccc(F)cc1 (centres undefined)
43 | 109 to 110 | COC(=O)c1ccc(Oc2ccccc2C=O)c([N+](=O)[O-])c1
44 | 164 to 165 | C=C1COc2ccc(C(=O)OC)cc2C(Cc2ccccc2)(S(=O)(=O)c2ccccc2)C1 (centres undefined)
45 | 236 to 240 | O=C(CC(=O)c1ccc(-c2ccccc2)cc1)Nc1ccc(OCCN2CCCC2)c(C(=O)O)c1
46 | > 200 | CCn1c(NC=O)nc(N2CCc3ccccc3CC2)c(C#N)c1=O
47 | 63 to 65.5 | CCCc1cc(=O)on1C(=O)c1ccc(Cl)cc1Cl
48 | 136 to 138 | Cc1ncccc1Oc1ccc(NC(=O)NCCc2ccccc2)cn1
49 | 72 to 73 | CCNc1nc2ccc(CCc3ccc(CN(C)C)o3)cc2o1
50 | 236 to 238 | NS(=O)(=O)c1ccc(-c2cnn(Cc3cc(F)c(F)cc3F)c(=O)c2-c2ccc(F)cc2)cc1
51 | 190 to 196 | CC(C)n1cc(C(=O)NCc2ccc(Cl)cc2)c(=O)c2cc(C#CCO)sc21
52 | 224 to 225 | CN1C(=O)c2ccccc2C2(CC(=O)NC2=O)C1=O (centres undefined)
53 | 238 to 241 | COc1nc(=O)n(-c2ccc(Cl)cc2)c(=O)[nH]1
54 | 175 to 180 | CCCCCCCCCCCC(C(=O)NN)C(C(=O)Nc1c(OC)cc(OC)cc1OC)c1ccccc1 (centres undefined)
55 | 132 to 135 | CC(C)n1nc(-c2nc(C(N)=O)c(N)nc2-c2ccccc2Br)ccc1=O
56 | 223 to 224 | CCOC(=O)c1c(-c2ccccc2Cl)c2cc(Cl)ccc2[nH]c1=O
57 | 84 to 86 | CCOC(=O)Cc1cc(O)ccc1CCc1cc2cc(C#N)ccc2o1
58 | 234 to 236 | O=c1ccc(-c2ccc(Cl)c(Cl)c2)nn1CN1CCN(Cn2nc(-c3ccc(Cl)c(Cl)c3)ccc2=O)CC1
59 | 138 to 141 | CCc1cccc(C)c1CNc1cc(C(=O)N(C)C)cc2c1nc(CO)n2C
60 | 188 | C[C@@H]1CNC(=O)c2cc3cc(F)cc(Br)c3n21

Row | melting point [°C] | SMILES
61 | 128 to 130 | O=C1c2ccccc2C(=O)N1CCCN1CCC(c2noc3cc(F)ccc23)CC1
62 | 99 to 101 | COc1ccc(C(=O)C(O)c2ccccc2)cc1 (centres undefined)
63 | 209 to 211 | N#Cc1cc2c(cc1F)OCC21C(=O)N(Cc2ncccc2C(F)(F)F)c2ccccc21 (centres undefined)
64 | 248 to 255 | Nc1ncc(Cc2ccc3c(c2)OCO3)c(N)n1
65 | 234 to 236 | Cc1c(-c2ccc(O)cc2)sc(C=O)c1-c1ccc(O)c(Cl)c1
66 | 248 | CC(NC(=O)c1cc(Cl)ccc1NC(=O)C1CC(=O)NN1)C1CC1 (centres undefined)
67 | 197 to 198 | CC1Oc2ccc(CN3CCN(c4ccc(Cl)cn4)CC3)cc2NC1=O (centres undefined)
68 | 55 | Nc1ccccc1C(=O)C1CCC1
69 | 182 to 183 | Fc1cccc(CSc2nnc(-c3ncnc4[nH]ccc34)o2)c1
70 | 146 to 148 | CCN(CCNC(=O)c1ccnc(F)c1)CCNC(=O)c1cnc2cc(I)ccc2n1
71 | 151 to 153 | CCCC(=O)c1cnc2c(OC)cccc2c1Nc1c(C)cc(O)c(O)c1C
72 | 140 to 145 | CCOC(=O)c1cn(CCc2cccc(C(F)(F)F)c2)c2cc(C3CC3)nn2c1=O
73 | 124 to 125 | Cc1oc(-c2ccccc2)nc1COc1ccc(Cn2cc(CCC(=O)O)c(-c3ccccc3)c2)cc1
74 | 128 to 129 | CC(c1ccc(-c2ccccc2)c(F)c1)c1csc(NS(C)(=O)=O)n1 (centres undefined)
75 | > 220 | C(=Cc1ccc2c(n1)[nH]c1ccccc12)c1ccccc1
76 | 262 to 264 | Oc1ccc(Nc2ncc3ncc(-c4ccccc4O)cc3n2)cc1
77 | 219 to 222 | CC(=O)N(c1nc2nc(C)cc(C)n2n1)S(=O)(=O)c1c(Cl)cccc1Cl
78 | 243 to 246 | O=C1Nc2cccc(-c3ccc(Oc4ccccc4)cc3)c2C12COc1cc3c(cc12)OCCO3 (centres undefined)
79 | 66 to 67 | N#Cc1c(N)cccc1Oc1ccccc1
80 | 81 to 83 | CCOC(=O)C(Cc1ccc(OCc2ccccc2)cc1)OS(C)(=O)=O (centres undefined)

Row | melting point [°C] | SMILES
81 | 168 to 169 | COC(=O)c1ccc(C=Cc2nc3ccccc3s2)cc1
82 | 169 to 174 | CS(=O)(=O)c1cc(C(=O)O)ccc1Oc1ccc(C(O)CSc2ccccn2)cc1 (centres undefined)
83 | 104 to 105 | CN(C)CCOc1ccc(CNC(=O)c2ccccc2N)cc1
84 | 88 to 91 | CCC(=O)c1ccc(C(O)C(C)(C)C)cc1 (centres undefined)
85 | 317 to 319 | O=C(Nc1ccc(-c2cnc(-c3ccc(NC(=O)c4cccnc4)cc3)[nH]2)cc1)c1cccnc1
86 | 176 to 178 | Clc1nc(SCc2ccccc2)nc2nc[nH]c12
87 | 130 to 132 | O=C(COCc1ccccc1Cl)Nc1ccccc1
88 | 203 to 206 | O=C(O)c1ccc(C(=O)NOCC2CCc3ccccc3C2)cc1 (centres undefined)
89 | 166 to 167 | CCN(CC)C(=O)Nc1cc(-c2c(-c3cccc(C)c3)nc3cccnn23)ccn1
90 | 104 to 108 | COC(=O)C(Oc1cc(OCc2ccsc2)ccc1C#N)c1ccccc1C(F)(F)F (racemic)
91 | 133 | COc1ccccc1N1Sc2ccccc2C(c2ccccc2)C1=O (centres undefined)
92 | 134 | CCOC(=O)CON=c1c2nccc3cccc(c32)n2cccc12
93 | 238 to 242 | CC(=O)Oc1cc(C)c(C)c(C)c1C1(OC(C)=O)C(=O)c2ccccc2C1=O
94 | 68 to 71 | CC(Cn1ccc(-c2ccccc2)n1)C(=O)N(C)C (centres undefined)
95 | 100 to 101 | CN(C)C=CC(=O)c1ccc2ccccc2c1
96 | 172 to 173 | COCCCc1ccc2oc(-c3cc4cccn4cn3)cc(=NO)c2c1
97 | 210 to 211 | CC(=O)N1CCN(CCCOc2ccc(NC(=O)c3cc(F)cc(N4CCCCC4)c3)c3ccccc23)CC1
98 | 151 to 152 | O=C1NCc2ccc(-c3cccc4cc(Cc5cccc(C(F)(F)F)c5)sc34)cc21
99 | 197 to 199 | CCc1nnc2ccc(-c3ccc(Cl)cc3)nn12
